In patent EP3552605A1 (priority 2018, dated 2019):
“Also recorded” adds a separate entry of the source. Where two headings read alike, the source gives them in different places.

Assays:
senescent ARPE-1 cells = experiment: toxicity towards senescent ARPE-1 cells (GIEMSA staining, microscopy); type: cell-based, human; details: 10 µM, 48 hours; senescence induced by 200nM aphidicolin for three weeks; Figure 1
Description: (§1) hTERT RPE-1 human retinal epithelial cell line was obtained from ATTC. Cells were grown in DMEM medium (Sigma Aldrich) supplemented with 10% fetal bovine serum (FBS) and antibiotics (penicillin-streptomycin). MRC-5 human lung fibroblast cell line was obtained from ATTC. Cells were grown in DMEM (Sigma Aldrich) supplemented with 10% FBS and antibiotics (penicillin-streptomycin).
(§2) In human ARPE-1 human epithelial cells, senescence response - manifested by loss of proliferation, typical morphological changes and Senescence Associated Beta-galactosidase positivity - was induced by exposition to replication stress for prolonged time period. The induction involved 200nM aphidicolin continual treatment for three weeks. The senescent cells have been exposed to various doses of MCOPPB dissolved in water for 48 hours, the dose range spanned 100 nM - 50 µM. The number of surviving cells was evaluated immediately after the treatment either using GIMSA staining and microscopy-based evaluation of surviving cells and compared to parental exponentially growing ARPE-1 cells, which were exposed to MCOPPB as well. Control samples of senescent and parental cells, without MCOPPB treatment, were assessed, too. […]

[1] = test system: parental (normal healthy) ARPE-1 cells; experiment: toxicity towards parental ARPE-1 cells (GIEMSA staining, microscopy); type: cell-based, human; details: 10 µM, 48 hours; Figure 1
Description: as §1, §2

senescent MRC5 cells = experiment: toxicity towards senescent MRC5 cells (GIEMSA staining, microscopy); type: cell-based, human
Description: as §1
In human MRC-5 fibroblasts cells, senescence response - manifested by loss of proliferation, typical morphological changes and Senescence Associated Beta-galactosidase positivity - was induced by exposition to gamma radiation. The induction involved a single irradiation, total dose 15 Gy using Xstrahl RS 225 M RTG device set to 200KV 15mA (dose 3.8Gy/min). […] The number of surviving cells was evaluated immediately after the treatment either using GIMSA staining and microscopy-based evaluation of surviving cells and compared to parental exponentially growing MRC-5 cells.

[2] = tolerance of long term application in vivo; parameters: species or system mice (C57B1/6 strain); details: five weeks, regime 5 + 2, female mice aged 42 weeks
Description: Female mice (C57B1/6 strain) at the age of 42 weeks were treated by intraperitoneal application of MCOPPB (10 mg/kg and 20 mg/kg) dissolved in phosphate buffer or by the buffer alone (vehicle) for five weeks in the regime 5 + 2 (5 days with the treatment, two days without) and followed for another two weeks. The weight and another physiological factors reflecting overall fitness were monitored.

[3] = test system: senescent cells (p16 positive cells); experiment: elimination of senescent cells in p16 luciferase reporter mouse; type: in vivo
Description: Reporter GMO mouse with integrated luciferase reporter under p16 promoter allows monitoring of aging on the molecular level by an increase of luminescence signal due to the accumulation of senescent cells (this mouse model is described in details in: Cell. 2013 Jan 17;152(1-2):340-51). Application of senolytics targets the p16 positive cells and leads to decrease in the luminescent signal. Naturally aged reporter mice were treated by the MCOPPB compound and luminescence signal level was measured over time.

mu opioid receptor = mu opioid receptor (Homo sapiens, UniProt P35372); details: cited from earlier work
kappa opioid receptor = kappa opioid receptor (Homo sapiens, UniProt P41145); details: cited from earlier work
delta opioid receptor = delta opioid receptor (Homo sapiens, UniProt P41143); details: cited from earlier work
[4] = target: T1, NOP receptor in the mouse brain (Mus musculus, UniProt P35377); details: 10 mg/kg, p.o.; ex vivo; cited from earlier work
T1 construct: from tissue; host or cells: mouse brain

[5] = p.o., cited from earlier work
[6] = animal studies, cited from earlier work
[7] = oral dose of 10 mg/kg; cited from earlier work
[8] = cited from earlier work
[9] = dose not stated; cited from earlier work

Chain of delta opioid receptor (P41143 whole entry): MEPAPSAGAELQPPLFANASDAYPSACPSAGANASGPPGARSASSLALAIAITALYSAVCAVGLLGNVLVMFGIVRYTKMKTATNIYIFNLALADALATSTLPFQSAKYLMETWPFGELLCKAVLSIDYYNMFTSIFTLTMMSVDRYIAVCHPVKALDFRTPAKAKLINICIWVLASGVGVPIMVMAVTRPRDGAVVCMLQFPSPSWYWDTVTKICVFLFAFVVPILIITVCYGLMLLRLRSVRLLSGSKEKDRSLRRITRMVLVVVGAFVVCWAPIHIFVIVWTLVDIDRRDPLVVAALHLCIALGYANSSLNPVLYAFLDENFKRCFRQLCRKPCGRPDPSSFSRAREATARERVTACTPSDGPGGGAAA
Chain of kappa opioid receptor (P41145 whole entry): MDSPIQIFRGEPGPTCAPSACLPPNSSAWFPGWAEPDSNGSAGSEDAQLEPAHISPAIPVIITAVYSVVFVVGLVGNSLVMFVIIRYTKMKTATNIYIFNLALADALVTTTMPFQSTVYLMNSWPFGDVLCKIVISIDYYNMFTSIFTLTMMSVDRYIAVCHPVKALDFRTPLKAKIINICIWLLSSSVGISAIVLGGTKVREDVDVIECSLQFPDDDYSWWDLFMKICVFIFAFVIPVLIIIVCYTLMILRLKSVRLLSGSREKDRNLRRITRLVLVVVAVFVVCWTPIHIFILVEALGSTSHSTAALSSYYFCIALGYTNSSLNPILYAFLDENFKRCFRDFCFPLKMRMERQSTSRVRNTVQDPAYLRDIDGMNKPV
Chain of mu opioid receptor (P35372 whole entry, species assumed): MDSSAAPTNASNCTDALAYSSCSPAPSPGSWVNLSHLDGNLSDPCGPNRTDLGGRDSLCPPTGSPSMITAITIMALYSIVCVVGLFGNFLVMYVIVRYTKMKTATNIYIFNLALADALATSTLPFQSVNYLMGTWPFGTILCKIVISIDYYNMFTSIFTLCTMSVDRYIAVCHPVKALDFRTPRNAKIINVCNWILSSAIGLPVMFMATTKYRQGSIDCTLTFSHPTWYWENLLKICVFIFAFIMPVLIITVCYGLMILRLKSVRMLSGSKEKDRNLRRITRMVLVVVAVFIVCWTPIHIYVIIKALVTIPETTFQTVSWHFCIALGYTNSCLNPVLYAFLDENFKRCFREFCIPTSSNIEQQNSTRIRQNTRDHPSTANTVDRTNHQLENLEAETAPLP
T1 sequence (P35377 whole entry): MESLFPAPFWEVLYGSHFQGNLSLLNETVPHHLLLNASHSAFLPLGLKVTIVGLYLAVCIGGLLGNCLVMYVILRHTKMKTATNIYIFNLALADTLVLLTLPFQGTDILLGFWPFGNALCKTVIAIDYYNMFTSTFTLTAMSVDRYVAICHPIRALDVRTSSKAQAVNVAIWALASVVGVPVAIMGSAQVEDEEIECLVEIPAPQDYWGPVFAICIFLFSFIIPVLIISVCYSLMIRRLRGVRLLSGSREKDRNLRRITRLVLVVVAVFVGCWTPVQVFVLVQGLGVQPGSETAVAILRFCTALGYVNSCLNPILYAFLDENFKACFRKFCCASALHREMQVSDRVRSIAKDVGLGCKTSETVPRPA

CC1(N2CCC(n3c([C@@H]4CCCNC4)nc4ccccc43)CC2)CCCCCCC1 [MCOPPB, 1-[1-(1-methylcyclooctyl)-4-piperidinyl]-2-[(3R)-3-piperidinyl]-1H-benzimidazole]
toxicity towards the senescent cells (senescent ARPE-1 cells): cell deterioration and cell loss; also recorded: selective toxicity | adverse effects on the parental cells [1]: no adverse effects | toxicity towards the senescent cells (senescent MRC5 cells; 5 µM, 48 hours, senescence induced by gamma radiation 15 Gy, Figure 3): selective toxicity | toxicity towards the senescent cells (senescent MRC5 cells; 10µM for 48 hours (legend of Figure 3)): cell deterioration and cell loss | tolerance by the animals ([2]; 10 mg/kg intraperitoneal): well tolerated | tolerance by the animals ([2]; 20 mg/kg intraperitoneal): well tolerated | whole body luminescent signals ([3]; 12-16 months old p16 reporter mice, treated for two weeks, versus vehicle, Figure 6): decrease of the luminescence signal | whole body luminescent signal ([3]; 12 month old p16 reporter mouse, after three weeks of treatment, Figure 5): rapid decrease of the signal | luminescence signal ([3]; naturally aged reporter mice, compared to controls, figures 5 and 6): decrease in the luminescence signal | affinity for the mu opioid receptor (mu opioid receptor): moderate affinity | affinity for the kappa opioid receptor (kappa opioid receptor): weak affinity | binding at the delta opioid receptor (delta opioid receptor): negligible binding | signaling through the NOP receptor in the mouse brain [4]: inhibited signaling | anxiolytic-like effects ([5]; 10 mg/kg): elicited anxiolytic-like effects | anxiolytic effect after repeated administration ([5]; 10 mg/kg, repeated administration for 5 days): still effective as an anxiolytic agent | shape of response curve [5]: bell-shaped response curve | sedative side effects ([6]; appear only at much higher doses than the effective anxiolytic dose range): only slight sedative side effects | anxiolytic effects [6]: potent anxiolytic effects | inhibition of memory or motor function [6]: no inhibition of memory or motor function | locomotor activity [7]: did not affect | memory ([8]; oral dose of 10 mg/kg): did not affect

CN1C(=O)CN=C(c2ccccc2)c2cc(Cl)ccc21 [diazepam, reference compound]
anxiolytic-like effects ([5]; 3 mg/kg): elicited anxiolytic-like effects | memory ([8]; dose not stated): caused memory deficits | ethanol-induced hypnosis [9]: enhanced ethanol-induced hypnosis
